In paper PMC9820345, “Metal Complexes of a 5-Nitro-8-Hydroxyquinoline-Proline Hybrid with Enhanced Water Solubility Targeting Multidrug Resistant Cancer Cells” (International Journal of Molecular Sciences, 2022):
Like-named read-outs stand apart in the source and are kept apart here.

What was measured:
OATP2B1 = target: T1, OATP2B1 (Homo sapiens, UniProt O94956); assay: OATP uptake assay, OATP2B1; type: cell-based; conditions: reference inhibitor; experiments not documented
T1 construct: expressed in transfected cells; host or cells: A431 epidermoid carcinoma cells
T1 sequence (O94956 1-709): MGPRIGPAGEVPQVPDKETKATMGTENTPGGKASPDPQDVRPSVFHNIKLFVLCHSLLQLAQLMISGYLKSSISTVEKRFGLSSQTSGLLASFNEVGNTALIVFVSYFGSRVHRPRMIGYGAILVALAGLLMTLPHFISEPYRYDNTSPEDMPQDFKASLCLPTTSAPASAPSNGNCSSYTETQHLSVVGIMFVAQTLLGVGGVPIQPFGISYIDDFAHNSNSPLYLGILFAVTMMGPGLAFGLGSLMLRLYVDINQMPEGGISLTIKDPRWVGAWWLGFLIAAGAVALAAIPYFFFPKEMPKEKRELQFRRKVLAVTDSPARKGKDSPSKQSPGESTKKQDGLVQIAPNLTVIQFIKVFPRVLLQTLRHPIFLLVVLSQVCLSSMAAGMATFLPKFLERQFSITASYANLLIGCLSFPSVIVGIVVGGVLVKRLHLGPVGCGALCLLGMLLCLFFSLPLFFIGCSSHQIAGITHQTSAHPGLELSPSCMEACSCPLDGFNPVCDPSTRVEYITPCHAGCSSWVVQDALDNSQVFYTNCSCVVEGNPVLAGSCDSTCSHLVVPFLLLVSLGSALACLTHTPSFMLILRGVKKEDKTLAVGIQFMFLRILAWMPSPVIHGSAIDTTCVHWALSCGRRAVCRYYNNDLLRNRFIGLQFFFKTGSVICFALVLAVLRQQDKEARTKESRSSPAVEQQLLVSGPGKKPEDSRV
Description: (§1) Cell lines: A431 cells overexpressing OATP1B1 or OATP2B1, and their mock transfected controls were generated and characterized previously. The cell lines were cultured in DMEM (Gibco, Thermofisher Scientific, Waltham, MA, USA), supplemented with 10% fetal bovine serum, 2 mM L-glutamine, 100 μg/mL streptomycin, and 100 units/mL penicillin at 37 °C and 5% CO2.
(§2) OATP uptake assay: Prior to the experiment, A431 cells (8 × 10^4/well) were seeded on 96-well plates in 200 μL cell culture medium. After 16–24 h, the cells were washed with 200 μL PBS, three times and pre-incubated with 20–200 μM HQNO2-L-Pro, or buffer without HQNO2-L-Pro for 5 min at 37 °C in 50 μL HBSS (Hank’s Balanced Salt Solution, pH 7.4; OATP1B1) or uptake buffer (pH 5.5; OATP2B1 [63]). The reaction was started by the addition of disulfopyrene (6,8-dihydroxy-1,3-pyrenedisulfonic acid disodium salt, Sigma, Darmstadt, Germany) at a final concentration of 10 μM (OATP1B1) or pyranine (8-hydroxypyrene-1,3-pyrenetrisulfonic acid trisodium salt, Sigma, Darmstadt, Germany) at a final concentration of 20 μM (OATP2B1), and the cells were further incubated at 37 °C for 10 min (OATP1B1) or 15 min (OATP2B1). The reaction was stopped by removing the supernatant after which the cells were washed three times with ice-cold PBS. Fluorescence (in 200 μL PBS) was determined using an Enspire plate reader (PerkinElmer, Waltham, MA, USA) with excitation/emission wavelengths of 460/510 nm. OATP-dependent transport was calculated by subtracting fluorescence measured in mock transfected cells. Transport activity was calculated based on the fluorescence signal in the absence (100%) of HQNO2-L-Pro. Experiments were repeated in at least three biological replicates.

OATP1B1 = target: T2, OATP1B1 (Homo sapiens, UniProt Q9Y6L6); assay: OATP uptake assay, OATP1B1; type: cell-based; conditions: reference inhibitor; experiments not documented
T2 construct: expressed in transfected cells; host or cells: A431 epidermoid carcinoma cells
T2 sequence (Q9Y6L6 1-691): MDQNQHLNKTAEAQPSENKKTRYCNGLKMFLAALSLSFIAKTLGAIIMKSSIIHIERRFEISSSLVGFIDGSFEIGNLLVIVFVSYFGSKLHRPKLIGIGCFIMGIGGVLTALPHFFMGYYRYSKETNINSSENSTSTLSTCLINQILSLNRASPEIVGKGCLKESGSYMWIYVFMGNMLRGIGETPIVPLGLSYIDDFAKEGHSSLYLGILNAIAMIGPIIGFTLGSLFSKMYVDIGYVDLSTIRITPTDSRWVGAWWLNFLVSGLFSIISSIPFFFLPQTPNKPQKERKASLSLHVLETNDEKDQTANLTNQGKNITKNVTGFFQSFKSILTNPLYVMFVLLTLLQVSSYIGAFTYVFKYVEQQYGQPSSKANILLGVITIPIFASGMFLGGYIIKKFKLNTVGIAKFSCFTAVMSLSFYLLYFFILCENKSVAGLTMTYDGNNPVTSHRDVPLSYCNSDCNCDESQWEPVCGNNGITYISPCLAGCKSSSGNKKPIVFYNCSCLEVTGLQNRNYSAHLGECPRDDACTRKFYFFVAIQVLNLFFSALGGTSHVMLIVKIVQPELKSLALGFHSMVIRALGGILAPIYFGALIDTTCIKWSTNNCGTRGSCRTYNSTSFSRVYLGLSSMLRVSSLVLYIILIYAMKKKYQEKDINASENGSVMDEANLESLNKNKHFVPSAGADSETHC
Description: as §1, §2

MES-SA = assay: In vitro cytotoxicity, MES-SA cells (fluorescent protein readout); type: cell-based, human; conditions: Homo sapiens, MES-SA; 144 h exposure
Description: (§3) Cell lines: all cell culture reagents were obtained from Sigma-Aldrich; plasticware was purchased from Sarstedt (Nümbrecht, Germany); Human colon Colo205 (chemo-sensitive, ATCC-CCL-222) and Colo320 (Pgp/MDR1-expressing, doxorubicin-resistant, ATCC-CCL-220.1) adenocarcinoma cell lines were purchased from LGC Promochem, Teddington, UK; MES-SA and MES-SA/Dx5 uterine sarcoma cell lines were obtained from ATCC, where they were characterized by DNA fingerprinting. The expression of the Pgp efflux pump of MES-SA/Dx5 was proven by Western blot analysis in our former report, and was also reported for the Colo320 cells. The MES-SA and MES-SA/Dx5 cells used in this study were previously engineered to express the fluorescent proteins mCherry and eGFP, respectively, by lentiviral transduction.
(§4) MES-SA cell lines were maintained in DMEM, supplemented with 10% fetal bovine serum, 5 mmol/L glutamine, and 50 units/mL penicillin and streptomycin. Cells were tested and resulted negative for mycoplasma contamination with the MycoAlert mycoplasma detection Kit (Lonza Group, Basel, Switzerland). One week prior to the cytotoxicity assays, Dx5 eGFP cells were selected in 500 nM doxorubicin for one passage to ensure the overexpression of P-glycoprotein.
(§5) Cytotoxicity assays: The tested compounds were dissolved in PBS buffer to prepare 5 mM stock solutions, which were diluted in complete culture medium.
(§6) In the case of the MES-SA and MES-SA/Dx5 cells, cell suspensions of the fluorescent cell lines were pre-mixed in a 1:1 ratio and seeded in 20 µL medium in a density of 2500 cells/well (1250 cells/well each) in a 384-well plate. After an overnight incubation, a serial dilution of the compounds was added to the plate in a final volume of 60 µL. The P-gp inhibitor tariquidar was added to the cells 15 min prior to the test compounds. After 144 h of incubation, plates were measured for the fluorescent intensity of mCherry (EX/EM: 585 nm/610 nm) and eGFP (EX/EM: 485 nm/510 nm). Cell seeding, aspiration of medium, and addition of drugs were performed by a Hamilton StarLet automated liquid handling robot.
(§7) Inhibition of the cell growth (expressed as IC50: inhibitory concentration that reduces by 50% the growth of the cells exposed to the tested compounds) was determined from the sigmoid curve where 100 − ((ODsample − ODmedium control)/(ODcell control − ODmedium control)) × 100 values were plotted against the logarithm of compound concentrations. Curves for the data obtained on Colo205 and Colo320 cells were fitted by GraphPad Prism software (2021, Graphpad Software, version 7.00, San Diego, CA, USA) using the sigmoidal dose–response model (comparing variable and fixed slopes). From the MES-SA cell data, the IC50 values were calculated by our custom program, written by J. Sessler in C#. The p values were calculated by Student’s t-test. The IC50 values were always obtained from at least three independent experiments.

Colo320 [1] = assay: In vitro cytotoxicity, Colo320 cells (MTT); type: cell-based, human; conditions: Homo sapiens, COLO 320; 72 h exposure
Description: as §3
(§8) The colon adenocarcinoma cells were cultured in RPMI 1640 medium supplemented with 10% heat-inactivated fetal bovine serum, 2 mM L-glutamine, 1 mM sodium pyruvate, and 100 mM HEPES. The cells were incubated at 37 °C, in a 5% CO2, 95% air atmosphere.
as §5
(§9) In the case of the Colo205 and Colo320 cells, two-fold serial dilutions were prepared in 100 μL medium. The semi-adherent colon adenocarcinoma cells were treated with Trypsin-Versene (EDTA) solution. They were adjusted to a density of 1 × 10^4 cells in 100 μL of RPMI 1640 medium and were added to each well, with the exception of the medium control wells. The final volume of the wells containing compounds and cells was 200 μL. The plates containing Colo205 and Colo320 cells were incubated at 37 °C for 72 h; at the end of the incubation period, 20 μL of 3-(4,5-dimethyl-2-thiazolyl)-2,5-diphenyl-2H-tetrazolium bromide (MTT) solution (from a stock solution of 5 mg/mL) was added to each well. After incubation at 37 °C for 4 h, 100 μL of sodium dodecyl sulfate (SDS) solution (10% in 0.01 M HCI) was added to each well, and the plates were further incubated at 37 °C overnight. Cell growth was determined by measuring the optical density (OD) at 540/630 nm with a Multiskan EX plate reader (Thermo Labsystems, Cheshire, WA, USA).
as §7

Colo205 [2] = assay: In vitro cytotoxicity, Colo205 cells (MTT); type: cell-based, human; conditions: Homo sapiens, COLO 205; 72 h exposure
Description: as §3, §8, §5, §9
as §7, with “From the MES-SA cell data, the IC50 values were calculated by our custom program, written by J. Sessler in C#. The p values were calculated by Student’s t-test. The IC50 values were always obtained from at least three independent experiments.” left out

MES-SA/Dx5 = assay: In vitro cytotoxicity, MES-SA/Dx5 cells (fluorescent protein readout); type: cell-based, human; conditions: Homo sapiens, MES-SA/Dx5; 144 h exposure
Description: as §3, §4, §5, §6, §7

HSA site I (Trp-214) = target: T3, HSA site I (Trp-214) (Homo sapiens, UniProt P02768); parameters: method as in PMID 32500882; conditions: cited from earlier work
T3 construct: purchased Sigma-Aldrich (Darmstadt, Germany) A8763
T3 sequence (P02768 25-609): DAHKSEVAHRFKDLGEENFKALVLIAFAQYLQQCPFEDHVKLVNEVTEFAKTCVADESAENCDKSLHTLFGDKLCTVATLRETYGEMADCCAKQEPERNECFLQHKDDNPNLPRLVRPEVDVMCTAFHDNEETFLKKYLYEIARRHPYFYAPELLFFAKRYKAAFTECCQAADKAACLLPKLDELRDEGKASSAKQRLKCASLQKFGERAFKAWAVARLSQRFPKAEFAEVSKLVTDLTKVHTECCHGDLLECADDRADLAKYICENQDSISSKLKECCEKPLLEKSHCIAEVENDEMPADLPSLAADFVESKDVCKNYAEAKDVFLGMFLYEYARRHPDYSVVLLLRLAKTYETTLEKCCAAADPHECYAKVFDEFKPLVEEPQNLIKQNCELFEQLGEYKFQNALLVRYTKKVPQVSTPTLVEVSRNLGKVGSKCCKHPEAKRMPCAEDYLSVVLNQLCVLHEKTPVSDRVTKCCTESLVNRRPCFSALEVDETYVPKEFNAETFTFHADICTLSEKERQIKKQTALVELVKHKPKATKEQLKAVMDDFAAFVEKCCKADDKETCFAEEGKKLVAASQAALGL

Colo320 [3] = tested on: Colo320; parameters: method as in PMID 32500882; conditions: cited from earlier work
HSA site II = target: T4, HSA site II (Homo sapiens, UniProt P02768); parameters: method as in PMID 32500882; conditions: cited from earlier work
T4 construct: purchased Sigma-Aldrich (Darmstadt, Germany) A8763
T4 sequence (P02768 25-609): as above

[4] = parameters: method as in earlier work; conditions: pH 7.40, cited from earlier work
Colo205 [5] = tested on: Colo205; parameters: method as in PMID 32500882; conditions: 72 h exposure; cited from earlier work

O=C1OC(c2ccc(O)c(S(=O)(=O)O)c2)(c2ccc(O)c(S(=O)(=O)O)c2)c2c(Br)c(Br)c(Br)c(Br)c21 [bromosulfophthalein, reference compound]
effect on OATP2B1 transport (OATP2B1): inhibited the transport | effect on OATP1B1 transport (OATP1B1): inhibited the transport

COc1cccc2c1C(=O)c1c(O)c3c(c(O)c1C2=O)C[C@@](O)(C(=O)CO)C[C@@H]3O[C@H]1C[C@H](N)[C@H](O)[C@H](C)O1 [doxorubicin, reference compound]
IC50 (MES-SA): 0.03 ± 0.01 µM | IC50 (Colo320 [1]): 5.4 ± 0.9 µM | IC50 (Colo205 [2]): 0.71 ± 0.02 µM | IC50 (MES-SA/Dx5): 4 ± 1 µM

Cc1ccc(C(C)C)cc1.O=C(O)[C@@H]1CCC[NH+]1Cc1cc(Cl)c2ccc[n+]3c2c1[O][Ru-]3[Cl].[Cl-] [RuCym-HQCl-L-Pro]
quenching constant logKQ' (HSA site I (Trp-214)): 5.7 | IC50 (Colo320 [3]; 72 h exposure): > 100 µM | Selectivity ratio IC50 (Colo205)/IC50 (Colo320) (Colo320 [3]; calculated from IC50 values taken from ref 12): ≤ 0.68 | DG marker displacement constant logKDG' (HSA site II): 6.1 | log D7.4 ([4]; 24 mM chloride): +0.09 ± 0.03 | log D7.4 ([4]; 100 mM chloride): +0.46 ± 0.03 | IC50 (Colo205 [5]): 68 ± 11 µM
